Assay [1] has as its target T1, Tyrosine kinase 2 TK2 (JH2 domain pseudokinase) (Homo sapiens, UniProt P29597).
T1 construct: gene TYK2; JH2 domain pseudokinase
Kind of assay: KINOMEscan competition binding, single concentration […]. To be noted: read-out: % of control at 100 μM.

The next assay deals with CDKL5 (Homo sapiens, UniProt O76039). Put plainly: biochemical. Details: KINOMEscan scanMAX active site-directed competition binding assay, percent of control, 468 kinases. To be noted: competition binding, percent of control. On the procedure:
(§1) The KINOMEscan^TM screening platform (scanMAX assay) employs a proprietary active site-directed competition binding assay that quantitatively measures the interactions between test compounds (here 100 μM S-carvone) and 468 human protein kinases. The assay was performed at Eurofins DiscoverX Corp. (Fremont, CA, USA). Blocking protein kinase C (PKC) activity was reported to inhibit the transcription of CYP1A1 but to exert no effect on the nuclear translocation of AhR[26], which was also the case here with carvones. Therefore, we tested whether carvones inhibit PKC catalytic activity. […] We also evaluated the interaction between 100 μM S-carvone and 468 human protein kinases, employing KINOMEscan^TM (scanMAX assay), a proprietary active site-directed competition binding assay. The minimal inhibitory threshold used by the screening platform KINOMEscan^TM is 35% of the control kinase activity. Among 468 kinases tested, 467 were above the 35% cutoff. Tyrosine kinase 2 TK2 (JH2 domain pseudokinase) activity was inhibited to 27% of the control activity, but this kinase is not relevant to the regulation of transcription activity (Fig. 5B; Figure S9). Overall, we excluded the possibility that the effects of carvones on AhR signaling are caused indirectly by the inhibition of the human kinome, particularly PKC.

A further assay deals with FGFR3(G697C) (Homo sapiens, UniProt P22607, G697C). Put plainly: biochemical. Further details: KINOMEscan scanMAX active site-directed competition binding assay, percent of control, 468 kinases. To be noted: competition binding, percent of control. On the procedure:
as §1

Assay [2] addresses T2, ABL1(F317I)-phosphorylated (Homo sapiens, UniProt P00519, F317I).
T2 construct: phosphorylated
Put plainly: biochemical. Further details: KINOMEscan scanMAX active site-directed competition binding assay, percent of control, 468 kinases. Particulars: competition binding, percent of control. On the procedure: as §1

The next assay deals with T3, ERK2 (Homo sapiens, UniProt P28482).
T3 construct: gene MAPK1
T3 sequence (P28482 whole entry): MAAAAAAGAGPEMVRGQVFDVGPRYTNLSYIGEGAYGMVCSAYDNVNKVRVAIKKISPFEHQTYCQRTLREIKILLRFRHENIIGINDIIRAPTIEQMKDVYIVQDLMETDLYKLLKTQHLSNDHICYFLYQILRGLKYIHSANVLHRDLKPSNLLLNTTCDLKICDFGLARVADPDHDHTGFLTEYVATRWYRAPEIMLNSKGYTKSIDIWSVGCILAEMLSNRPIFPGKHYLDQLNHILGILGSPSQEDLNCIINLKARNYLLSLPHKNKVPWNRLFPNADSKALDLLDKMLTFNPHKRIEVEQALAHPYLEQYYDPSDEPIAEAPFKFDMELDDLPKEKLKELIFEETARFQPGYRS
Kind of assay: biochemical. Further details: KINOMEscan scanMAX active site-directed competition binding assay, percent of control, 468 kinases. To be noted: competition binding, percent of control. On the procedure:
as §1

A further assay deals with CDK8 (Homo sapiens, UniProt P49336). Put plainly: biochemical. Details: KINOMEscan scanMAX active site-directed competition binding assay, percent of control, 468 kinases. Particulars: competition binding, percent of control. On the procedure: as §1
The target in another assay is T4, ZAK (Homo sapiens, UniProt Q9NYL2).
T4 construct: gene MAP3K20
Put plainly: biochemical. Details: KINOMEscan scanMAX active site-directed competition binding assay, percent of control, 468 kinases. To be noted: competition binding, percent of control. On the procedure:
as §1

Assay [3] concerns the target T5, RSK2(Kin.Dom.1-N-terminal) (Homo sapiens, UniProt P51812).
T5 construct: gene RPS6KA3; Kin.Dom.1-N-terminal
Kind of assay: biochemical. To be noted: competition binding, percent of control. Further details: KINOMEscan scanMAX active site-directed competition binding assay, percent of control, 468 kinases. On the procedure:
as §1

In another assay the target is TAOK2 (Homo sapiens, UniProt Q9UL54). Put plainly: biochemical. Details: KINOMEscan scanMAX active site-directed competition binding assay, percent of control, 468 kinases. Particulars: competition binding, percent of control. On the procedure: as §1
For the next assay, the target named is T6, CAMK1B (Homo sapiens, UniProt Q6P2M8).
T6 construct: gene PNCK
T6 sequence (Q6P2M8 whole entry): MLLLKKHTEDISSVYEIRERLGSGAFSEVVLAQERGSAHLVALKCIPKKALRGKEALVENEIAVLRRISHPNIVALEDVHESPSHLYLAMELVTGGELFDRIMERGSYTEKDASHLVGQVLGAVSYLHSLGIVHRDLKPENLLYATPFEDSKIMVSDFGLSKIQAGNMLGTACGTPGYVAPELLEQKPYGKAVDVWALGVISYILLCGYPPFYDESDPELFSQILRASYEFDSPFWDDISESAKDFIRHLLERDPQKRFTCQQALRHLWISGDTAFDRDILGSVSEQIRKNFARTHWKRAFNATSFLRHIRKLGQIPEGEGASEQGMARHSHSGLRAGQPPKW
Put plainly: biochemical. Details: KINOMEscan scanMAX active site-directed competition binding assay, percent of control, 468 kinases. Particulars: competition binding, percent of control. On the procedure: as §1

The target of the next assay is T7, MEK4 (Homo sapiens, UniProt P45985).
T7 construct: gene MAP2K4
T7 sequence (P45985 whole entry): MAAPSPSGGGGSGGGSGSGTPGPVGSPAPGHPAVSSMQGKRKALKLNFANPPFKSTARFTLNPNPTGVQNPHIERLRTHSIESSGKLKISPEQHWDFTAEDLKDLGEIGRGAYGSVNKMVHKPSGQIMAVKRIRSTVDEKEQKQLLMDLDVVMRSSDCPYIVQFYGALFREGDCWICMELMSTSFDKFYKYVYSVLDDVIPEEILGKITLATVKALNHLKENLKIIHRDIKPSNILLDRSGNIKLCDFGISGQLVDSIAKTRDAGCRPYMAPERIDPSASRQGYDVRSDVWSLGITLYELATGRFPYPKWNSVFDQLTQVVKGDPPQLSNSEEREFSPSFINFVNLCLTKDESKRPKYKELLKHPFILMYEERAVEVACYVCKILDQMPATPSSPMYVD
Kind of assay: biochemical. Details: KINOMEscan scanMAX active site-directed competition binding assay, percent of control, 468 kinases. Particulars: competition binding, percent of control. On the procedure: as §1

The target in the next assay is FLT3(D835H) (Homo sapiens, UniProt P36888, D835H). Kind of assay: biochemical. To be noted: competition binding, percent of control. Details: KINOMEscan scanMAX active site-directed competition binding assay, percent of control, 468 kinases. On the procedure: as §1
The target of another assay is T8, JNK2 (Homo sapiens, UniProt P45984).
T8 construct: gene MAPK9
Put plainly: biochemical. Further details: KINOMEscan scanMAX active site-directed competition binding assay, percent of control, 468 kinases. To be noted: competition binding, percent of control. On the procedure:
as §1

Another assay has as its target BMPR1A (Homo sapiens, UniProt P36894). Put plainly: biochemical. Further details: KINOMEscan scanMAX active site-directed competition binding assay, percent of control, 468 kinases. Particulars: competition binding, percent of control. On the procedure: as §1
Another assay has as its target T9, TIE2 (Homo sapiens, UniProt Q02763).
T9 construct: gene TEK
Put plainly: biochemical. To be noted: competition binding, percent of control. Details: KINOMEscan scanMAX active site-directed competition binding assay, percent of control, 468 kinases. On the procedure: as §1

For another assay, the target named is MST1R (Homo sapiens, UniProt Q04912). Put plainly: biochemical. Further details: KINOMEscan scanMAX active site-directed competition binding assay, percent of control, 468 kinases. To be noted: competition binding, percent of control. On the procedure:
as §1

The next assay addresses CAMK2D (Homo sapiens, UniProt Q13557). Put plainly: biochemical. Details: KINOMEscan scanMAX active site-directed competition binding assay, percent of control, 468 kinases. To be noted: competition binding, percent of control. On the procedure:
as §1

The next assay deals with MARK2 (Homo sapiens, UniProt Q7KZI7). Put plainly: biochemical. Details: KINOMEscan scanMAX active site-directed competition binding assay, percent of control, 468 kinases. Particulars: competition binding, percent of control. On the procedure:
as §1

For the next assay, the target named is SRPK3 (Homo sapiens, UniProt Q9UPE1). Kind of assay: biochemical. To be noted: competition binding, percent of control. Further details: KINOMEscan scanMAX active site-directed competition binding assay, percent of control, 468 kinases. On the procedure:
as §1

Another assay addresses PRKD1 (Homo sapiens, UniProt Q15139). Kind of assay: biochemical. Further details: KINOMEscan scanMAX active site-directed competition binding assay, percent of control, 468 kinases. To be noted: competition binding, percent of control. On the procedure: as §1
A further assay has as its target PDGFRB (Homo sapiens, UniProt P09619). Put plainly: biochemical. Further details: KINOMEscan scanMAX active site-directed competition binding assay, percent of control, 468 kinases. Particulars: competition binding, percent of control. On the procedure: as §1

T1 sequence (P29597 589-875 limits assumed): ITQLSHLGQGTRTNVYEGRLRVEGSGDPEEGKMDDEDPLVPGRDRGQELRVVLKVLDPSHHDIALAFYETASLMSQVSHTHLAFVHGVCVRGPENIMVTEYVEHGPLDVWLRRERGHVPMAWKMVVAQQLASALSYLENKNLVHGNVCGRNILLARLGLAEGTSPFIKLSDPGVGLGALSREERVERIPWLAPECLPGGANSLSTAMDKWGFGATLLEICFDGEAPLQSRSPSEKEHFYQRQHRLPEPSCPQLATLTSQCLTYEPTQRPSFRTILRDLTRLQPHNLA
SRPK3, sequence (Q9UPE1 whole entry): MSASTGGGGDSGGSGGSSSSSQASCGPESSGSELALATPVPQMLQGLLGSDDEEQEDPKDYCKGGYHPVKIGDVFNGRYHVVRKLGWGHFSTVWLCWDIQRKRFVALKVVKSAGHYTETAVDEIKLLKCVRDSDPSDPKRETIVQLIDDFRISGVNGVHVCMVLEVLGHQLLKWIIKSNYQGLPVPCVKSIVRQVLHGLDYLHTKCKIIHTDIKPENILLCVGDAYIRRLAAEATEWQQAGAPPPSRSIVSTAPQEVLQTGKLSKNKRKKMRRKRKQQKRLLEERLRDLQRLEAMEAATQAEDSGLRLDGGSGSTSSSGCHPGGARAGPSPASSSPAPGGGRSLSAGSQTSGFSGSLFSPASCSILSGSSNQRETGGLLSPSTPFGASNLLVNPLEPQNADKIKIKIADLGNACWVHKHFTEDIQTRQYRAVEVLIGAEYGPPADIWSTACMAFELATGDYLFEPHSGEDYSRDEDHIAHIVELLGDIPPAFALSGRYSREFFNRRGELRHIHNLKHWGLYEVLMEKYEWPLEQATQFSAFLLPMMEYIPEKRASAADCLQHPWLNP
T9 sequence (Q02763 whole entry): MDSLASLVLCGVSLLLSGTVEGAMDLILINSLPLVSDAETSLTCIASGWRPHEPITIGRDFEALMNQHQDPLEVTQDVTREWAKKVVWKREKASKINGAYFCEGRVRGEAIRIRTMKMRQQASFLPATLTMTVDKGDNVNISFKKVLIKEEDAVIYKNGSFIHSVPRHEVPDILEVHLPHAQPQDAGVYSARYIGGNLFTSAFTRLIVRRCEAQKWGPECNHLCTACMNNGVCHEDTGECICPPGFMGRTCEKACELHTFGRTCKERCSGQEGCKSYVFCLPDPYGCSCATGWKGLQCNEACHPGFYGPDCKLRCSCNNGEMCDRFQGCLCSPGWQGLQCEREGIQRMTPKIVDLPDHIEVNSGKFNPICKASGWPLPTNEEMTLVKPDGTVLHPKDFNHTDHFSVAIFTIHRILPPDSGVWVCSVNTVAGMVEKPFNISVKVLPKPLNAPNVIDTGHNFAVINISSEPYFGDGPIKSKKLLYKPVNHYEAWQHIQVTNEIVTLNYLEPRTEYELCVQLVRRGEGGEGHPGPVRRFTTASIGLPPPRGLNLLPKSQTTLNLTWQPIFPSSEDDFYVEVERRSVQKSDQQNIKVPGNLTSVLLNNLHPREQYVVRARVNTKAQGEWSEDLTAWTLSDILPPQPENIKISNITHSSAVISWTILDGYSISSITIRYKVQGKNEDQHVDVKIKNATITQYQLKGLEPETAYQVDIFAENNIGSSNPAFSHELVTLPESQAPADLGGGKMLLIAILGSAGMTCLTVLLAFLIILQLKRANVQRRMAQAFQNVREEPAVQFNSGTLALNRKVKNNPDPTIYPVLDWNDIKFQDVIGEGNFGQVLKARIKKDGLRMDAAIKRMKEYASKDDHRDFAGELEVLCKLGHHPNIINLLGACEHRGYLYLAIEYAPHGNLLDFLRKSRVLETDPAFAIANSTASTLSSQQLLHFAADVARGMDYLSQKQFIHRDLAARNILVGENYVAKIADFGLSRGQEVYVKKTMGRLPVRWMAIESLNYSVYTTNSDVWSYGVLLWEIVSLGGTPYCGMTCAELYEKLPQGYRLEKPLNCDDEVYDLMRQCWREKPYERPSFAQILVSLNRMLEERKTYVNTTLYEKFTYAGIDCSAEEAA
PDGFRB, sequence (P09619 whole entry): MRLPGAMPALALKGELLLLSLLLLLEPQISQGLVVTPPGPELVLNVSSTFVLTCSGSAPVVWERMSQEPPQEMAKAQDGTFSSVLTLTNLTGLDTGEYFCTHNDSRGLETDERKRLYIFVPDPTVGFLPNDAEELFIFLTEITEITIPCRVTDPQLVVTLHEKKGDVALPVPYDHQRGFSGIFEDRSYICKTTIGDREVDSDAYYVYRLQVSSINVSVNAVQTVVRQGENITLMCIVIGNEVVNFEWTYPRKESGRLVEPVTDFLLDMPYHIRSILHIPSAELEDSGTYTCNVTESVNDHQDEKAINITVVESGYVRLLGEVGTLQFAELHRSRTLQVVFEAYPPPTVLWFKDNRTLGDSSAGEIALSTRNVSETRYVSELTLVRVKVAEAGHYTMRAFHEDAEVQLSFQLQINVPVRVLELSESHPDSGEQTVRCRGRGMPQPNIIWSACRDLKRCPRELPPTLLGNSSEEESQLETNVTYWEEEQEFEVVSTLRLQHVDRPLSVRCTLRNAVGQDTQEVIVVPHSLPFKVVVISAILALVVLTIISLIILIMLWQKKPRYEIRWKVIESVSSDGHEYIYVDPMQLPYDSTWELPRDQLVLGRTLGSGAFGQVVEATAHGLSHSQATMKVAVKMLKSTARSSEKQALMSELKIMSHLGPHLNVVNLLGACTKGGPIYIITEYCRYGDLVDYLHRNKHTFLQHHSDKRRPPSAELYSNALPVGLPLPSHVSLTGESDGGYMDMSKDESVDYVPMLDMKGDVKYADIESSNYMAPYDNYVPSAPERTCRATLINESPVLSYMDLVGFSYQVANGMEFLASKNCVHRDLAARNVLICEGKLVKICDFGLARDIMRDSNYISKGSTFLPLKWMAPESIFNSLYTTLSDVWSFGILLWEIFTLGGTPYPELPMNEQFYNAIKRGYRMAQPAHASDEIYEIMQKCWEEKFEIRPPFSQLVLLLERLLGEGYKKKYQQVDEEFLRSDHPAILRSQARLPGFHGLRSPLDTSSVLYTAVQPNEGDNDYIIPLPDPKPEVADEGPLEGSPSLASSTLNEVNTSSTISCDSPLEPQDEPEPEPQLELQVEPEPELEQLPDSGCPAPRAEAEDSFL
FGFR3(G697C), sequence (P22607 whole entry G697C): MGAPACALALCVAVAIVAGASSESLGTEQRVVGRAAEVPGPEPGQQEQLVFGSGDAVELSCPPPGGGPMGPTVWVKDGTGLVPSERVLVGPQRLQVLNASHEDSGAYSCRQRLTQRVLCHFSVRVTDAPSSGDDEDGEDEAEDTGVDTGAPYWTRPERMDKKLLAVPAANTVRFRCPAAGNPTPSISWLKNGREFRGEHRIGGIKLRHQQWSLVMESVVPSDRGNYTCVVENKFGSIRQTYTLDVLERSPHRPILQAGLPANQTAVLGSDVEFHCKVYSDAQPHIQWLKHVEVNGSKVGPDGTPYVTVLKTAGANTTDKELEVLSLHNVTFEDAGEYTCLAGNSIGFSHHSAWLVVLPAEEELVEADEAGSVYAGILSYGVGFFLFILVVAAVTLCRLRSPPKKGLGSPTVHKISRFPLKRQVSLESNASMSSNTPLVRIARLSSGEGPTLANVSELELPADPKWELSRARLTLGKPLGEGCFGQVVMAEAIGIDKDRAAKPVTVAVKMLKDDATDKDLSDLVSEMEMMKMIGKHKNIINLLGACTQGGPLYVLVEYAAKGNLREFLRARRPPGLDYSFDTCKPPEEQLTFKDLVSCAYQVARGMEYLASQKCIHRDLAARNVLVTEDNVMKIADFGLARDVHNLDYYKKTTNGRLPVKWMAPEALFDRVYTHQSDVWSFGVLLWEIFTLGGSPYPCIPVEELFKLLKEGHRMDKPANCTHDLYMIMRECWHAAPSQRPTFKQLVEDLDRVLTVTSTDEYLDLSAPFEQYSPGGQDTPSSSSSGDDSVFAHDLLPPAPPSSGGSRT

For the molecule `C=C(C)[C@H]1CC=C(C)C(=O)C1` [S-carvone], the remaining binding at 100 µM was found to be 27% in assay [1]; 96% on CDKL5; 75% at FGFR3(G697C); 97% in [2]; 76% on ERK2; 84% on CDK8. Besides, the remaining binding at 100 µM on ZAK came to 72%; in assay [3], 89%; at TAOK2, 78%; on CAMK1B, 61%; on MEK4, 74%; on FLT3(D835H), 92%. Moreover, the remaining binding at 100 µM at JNK2 worked out at 95%; at BMPR1A, 92%; at TIE2, 84%; at MST1R it was 65%; at CAMK2D, 94%; at MARK2, 100%. Further, the values for the remaining binding at 100 µM at SRPK3, at PRKD1 and on PDGFRB were 61%, 61% and 69%, respectively.
